Values quoted from earlier work in patent US20220031861A1, “COMBINATION THERAPY OF DIFFUSE LARGE B-CELL LYMPHOMA COMPRISING AN ANTI-CD79B IMMUNOCONJUGATES, AN ALKYLATING AGENT AND AN ANTI-CD20 ANTIBODY” (priority 2018, published 2022).

System: R/R DLBCL
[1] = R/R DLBCL, monotherapy and combined with an anti-CD20 monoclonal antibody

Polatuzumab vedotin
complete remission (CR) rates [1]: 0-15% | overall response rates (ORR) [1]: 13-56% | CR rate reported previously (in combination with an anti-CD20 monoclonal antibody (Morschhauser et al. 2014, ROMULUS)): 15%
